Test [1] deals with T1, PfDPMS (Pyrococcus furiosus, UniProt Q8U4M3).
T1 construct: gene PF0058; E. coli C41(DE3) membranes, DDM or LDAO solubilised, mainly monomer
T1 sequence (Q8U4M3 1-352): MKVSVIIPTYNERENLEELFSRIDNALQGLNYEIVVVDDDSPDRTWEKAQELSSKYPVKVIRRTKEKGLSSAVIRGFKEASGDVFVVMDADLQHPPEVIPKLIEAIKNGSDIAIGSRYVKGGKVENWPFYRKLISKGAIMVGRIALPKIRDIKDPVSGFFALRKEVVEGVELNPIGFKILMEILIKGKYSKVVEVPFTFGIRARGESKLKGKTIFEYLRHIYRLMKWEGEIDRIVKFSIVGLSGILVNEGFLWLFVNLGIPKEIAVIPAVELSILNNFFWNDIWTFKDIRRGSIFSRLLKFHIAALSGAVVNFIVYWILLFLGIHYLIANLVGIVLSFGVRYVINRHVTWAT
The test is described as follows: X-ray crystallography. Type of test: binding. As to conditions: formed in reaction mixture at 60 °C; GDP bound, metal departed.

The target of test [2] is T1, PfDPMS. The test is described as follows: thermal shift, heat precipitation with SDS-PAGE densitometry. Type of test: binding. The conditions noted are these: detergent-solubilised; compared with no Dol-P.
The target of test [3] is T1, PfDPMS. The test is described as follows: phosphate-coupled glycosyltransferase assay (malachite green). Type of test: biochemical. The conditions noted are these: 0.23 mM donor, Dol-P acceptor, 75 °C, pH 7.5.

Each structure is given as a SMILES string.

The ΔTm is the shift of the melting midpoint relative to a reference.

`CC(C)=CCC/C(C)=C/CC/C(C)=C/CC/C(C)=C\CC/C(C)=C\CC/C(C)=C\CC/C(C)=C\CC/C(C)=C\CC/C(C)=C\CC/C(C)=C\CC[C@H](C)CCOP(=O)(O)O[C@@H]1O[C@H](CO)[C@@H](O)[C@H](O)[C@@H]1O` [Dol55-P-Man]: the X-ray crystallography at PfDPMS [1] was 5MM1 (PfDPMS•GDP•Dol55-P-Man). For the compound `CC(C)=CCC/C(C)=C/CC/C(C)=C/CC/C(C)=C\CC/C(C)=C\CC/C(C)=C\CC/C(C)=C\CC/C(C)=C\CC/C(C)=C\CC/C(C)=C\CC[C@H](C)CCOP(=O)(O)O` [Dol55-P], at PfDPMS [2], the ΔTm is 13.3 °C. In the case of `Nc1nc2c(ncn2[C@@H]2O[C@H](COP(=O)(O)OP(=O)(O)O[C@H]3O[C@H](CO)[C@@H](O)[C@H](O)[C@H]3O)[C@@H](O)[C@H]2O)c(=O)[nH]1` [GDP-Glc], the “phosphate-coupled glycosyltransferase assay (malachite green)” value at PfDPMS [3] is on record as “four-fold higher product formation with GDP-Man compared with GDP-Glc”.
